Data from US20090156477A1, “Compositions and Methods for Regulating Inflammatory Responses” (Massachusetts Institute of Technology, priority 2005, published 2009).

B1: FGF7: Recombinant human FGF7 from Sigma (protein, UniProt P21781 32-194, looked up)
Fibroblast growth factor 7: CNDMTPEQMATNVNCSSPERHTRSYDYMEGGDIRVRRLFCRTQWYLRIDKRGKVKGTQEMKNNYNIMEIRTVAVGIVAIKGVESEFYLAMNKEGKLYAKKECNEDCNFKELILENHYNTYASAKWTHNGGEMFVALNQKGIPVRGKKTKKEQKTAHFLPMAIT

Legend:
caveolin-1 = experiment: Immunohistochemistry for caveolin-1 in Caco-2 cells; format: cell-based, human; details: four hours after administration
Experimental: (§1) Caco-2 cells were grown to just prior to confluency on collagen IV coated glass slides. Cells were treated with PBS, FGF1, FGF2 and FGF7, and were incubated at 37° C. in a 5% CO2 humidified incubator for 1 hour, 4 hours, 24 hours or 48 hours, as noted. Cells were washed with PBS, fixed with 3.7% formalin for 10 minutes and washed again with PBS. Cells were treated with 0.1% Triton x-100 for 5 minutes to extract lipids. Cells were washed with PBS and preincubated with PBS supplemented with 1% bovine serum albumin. Primary antibodies were added for 4 hours at room temperature, and cells were washed with PBS. […]
(§2) Cells, except those stained with phalloidin, were washed with PBS and stained with diamidino-2-phenylindole (DAPI) for 5 minutes at room temperature (Molecular Probes). […] Cells were examined by confocal microscopy (ZO-1 and phalloidin only), or by fluorescence microscopy. A Nikon HB10101AF fluorescence microscope was used and images were captured at room temperature using a Hitachi HVC20 camera and Scion image acquisition software. […]

phospho-β-catenin = experiment: Immunohistochemistry for phospho-β-catenin in Caco-2 cells; format: cell-based, human
Experimental: as §1, §2

| Molecule | caveolin-1 localization (caveolin-1) | phosphorylated β-catenin localization (phospho-β-catenin) |
| --- | --- | --- |
| FGF1: Recombinant human FGF1 from Amgen | localized surrounding the nucleus | – |
| FGF2: Recombinant human FGF2, produced as described | – | clustered around the nucleus |
| B1 | – | clustered around the nucleus |
